Test results as given in US6306899A (priority 1999, dated 2001).
≈ marks a conversion by molar mass, not a printed value. Entries after “also recorded” stand apart in the source; their conditions may differ.

How the values were obtained:
[1] = tested on: 3TC resistant HBV (DM2); experiment: Activity against 3TC resistant HBV (DM2, L526MM550V) in transfected HepG2 cells; assay type: cell-based, Hepatitis B virus; settings: in words; for effect on 3TC resistant HBV: DM2, HepG2, 9 days
[2] = tested on: WT10; experiment: Activity against wild-type HBV (WT10) in transfected HepG2 cells; assay type: cell-based, Hepatitis B virus; settings: in words
[3] = tested on: HBV; settings: background; in words; cited from earlier work
[4] = background; in words; cited from earlier work
[5] = tested on: HBV RNA; experiment: HBV RNA level (Northern analysis); assay type: cell-based, Hepatitis B virus; settings: in words
Description: The biological activity of the present compounds was assessed as described by Doong, S-L, et al., Proc. Natl. Acad. Sci. U.S.A 88, 8495-8499 (1991). The human hepatoma cell line carrying HBV (cell line designated 2.2.15) provided by Dr. G. Aces was used in the study. Price, et al., Proc. Natl. Acad. Sci. U.S.A. 86, 8541 (1989). Briefly, six day-old cultures were treated with varying concentrations of the drug in the culture medium (Minimum essential medium with Earl's salts and 10% fetal bovine serum). The drug was left in the culture medium for a period of 3 days after which period the medium was aspirated and fresh medium containing the same concentration(s) of the drug was added. […] Inhibition of the viral replication was determined by the comparison of the viral DNA from drug-treated versus control cultures not treated with the drug. In addition, supernatant obtained from the polyethylene glycol precipitation of the cell culture medium (above) was measured for the presence of two HBV antigens (HBsAg and HBeAg) using enzyme immunoassay kits from Abbott Laboratories, Inc. [HBs (rDNA) EIA and HBe (rDNA)EIA], pursuant to standard practice (FIG. 3A). RNA levels were determed using Northern analysis with cellular albumin RNA being measured as a load control to standardize the quality of the HBV RNA measurement (FIG. 3B).

[6] = tested on: HBV; experiment: microbe, parasite or virus in culture; assay type: cell-based, Hepatitis B virus; settings: for inhibition of HBV replication / DNA level: in words
[7] = tested on: HBsAg; experiment: microbe, parasite or virus in culture; assay type: cell-based, Hepatitis B virus
[8] = tested on: HBsAg in Hep3B cells; experiment: Suppression of HBsAg secretion in Hep3B cells, serum-free, 2 days; assay type: cell-based; settings: Homo sapiens, 48 h, read-out: EC50 Hep3B (50% reduction of HBsAg secretion)
Source text: (§1) Biological testing results of Helioxanthin and
(§2) its derivatives for suppression of HBsAg
(§3) in HepA2 and Hep3B cells in serum-free condition for 2 days
(§4) The symbol, "**" denotes EC50, the concentration of tested compounds
(§5) which exerted 50% reduction of HBsAg secretion in human hepatoma cells.

[9] = tested on: Yellow Fever virus; experiment: microbe, parasite or virus in culture; assay type: cell-based
[10] = Cytotoxicity, CEM cell growth; assay type: cell-based; settings: human, cem cells; 3 days; read-out: Cytotoxicity (IC50) CEM cell
Description: (§6) To determine the cellular toxicity of the present compounds, the T-lymphoblastoic cell line (CEM) and the HEP-G2 cell line (parent cell line from which 2.2.15 cell line is produced) were used. Cells were subjected to varying concentrations of the drug(s) and cell numbers were determined 3 days post treatment by the method described by Chen, C-H and Cheng, Y-C, J. Biol. Chem., 264, 11934 (1989). Concentrations of the drug which would result in inhibition of cell growth were determined from the plot generated by representing cell numbers corresponding to the individual drug concentrations.

[11] = Solubility: saturated solution in PBS at room temperature; assay type: physicochemical; settings: aqueous buffer
Source text: 3. The symbol "*" denotes the concentration of the saturated solution in
PBS at room temperature.

[12] = tested on: HBsAg in HepA2 cells; experiment: Suppression of HBsAg secretion in HepA2 cells, serum-free, 2 days; assay type: cell-based; settings: Homo sapiens, HepA2, 48 h, read-out: EC50 HepA2 (50% reduction of HBsAg secretion)
Source text: as §1, §2, §3
The symbol, "*" denotes HepA2, HBV DNA stable transfected HBV dimer DNA.
as §4, §5

[13] = Cytotoxicity, HepG2 cell growth; assay type: cell-based; settings: human, hepg2 cells; 3 days; read-out: Cytotoxicity (IC50) HepG2 cell
Description: as §6

For `Nc1ccn([C@@H]2CS[C@H](CO)O2)c(=O)n1` [Compound 3TC], the “sensitivity of HBV DNA production of DM2 to 3TC” value ([1]; DM2) is listed as “resistant”, the “sensitivity of HBV DNA production of WT10 to 3TC” value [2] is listed as “sensitive” and the “effect on HBV infection” value [3] is listed as “recurrence of HBV after a period of treatment”.

In the case of `Nc1ncnc2c1ncn2[C@@H]1O[C@H](COP(=O)(O)O)[C@@H](O)[C@@H]1O` [ara-AMP], the toxicity [4] is listed as “extremely toxic” and the “effect on HBV infection” value [3] is listed as “transiently suppress HBV infection”.

In the case of `Nc1ccn([C@H]2CC[C@@H](CO)O2)c(=O)n1` [2',3'-dideoxycytidine (ddC), 2',3'-dideoxycytidine], the toxicity [4] is given as “high toxicity on the central and peripheral nervous system”.

In the case of `O=C1OCc2c1cc1ccc3c(c1c2-c1ccc2c(c1)OCO2)OCO3` [Compound 145, 7,8-methylenedioxy-1-(3',4'-methylenedioxyphenyl)-2-hydroxymethylnaphthalene-3-carboxylic acid lactone], the “HBV RNA level” value [5] is reported as “decreased the RNA and DNA level; also recorded: decrease the RNA level of HBV”, the “HBV RNA level” value ([5]; listed as helioxanthin) is reported as “decreased the RNA level” and the EC50 ([6]; Hepatitis B virus, 144 h) is reported as 1 µM. The “inhibition of HBV replication / DNA level” value [6] was “selectively inhibited HBV replication; also recorded: decreased the RNA and DNA level; also recorded: the most active compound in the series tested; also recorded: inhibit HBV replication in cell culture”, the “inhibition of HBV replication / DNA level” value ([6]; listed as helioxanthin) was “selectively inhibited HBV replication” and the “effect on 3TC resistant HBV” value [1] was “excellent anti-HBV activity even in 3TC (L(-)SddC) resistant HBV”. For the same compound, the “effect on 3TC resistant HBV” value ([1]; listed as helioxanthin) was “stronger inhibition of viral replication of strains of HBV that have become resistant to 3TC”, the EC50 ([7]; Hepatitis B virus, 144 h, read-out: Anti-viral activity (ED50) HbsAg) was 4 µM and the HbsAg expression inhibition ([7]; in words) was “inhibit HBV replication and HbsAg expression”. The EC50 [8] was 0.025 µM, the EC50 ([9]; Yellow fever virus, BHK, 144 h, read-out: Anti-viral activity (ED50) YFV, plaque reduction, BHK cells, 6 days) was 9.5 µM and the “activity against the Yellow fever virus” value ([9]; in words) was “demonstrated activity against the Yellow fever virus”. The CC50 at 72 h [10] was 22 µM, the solubility [11] was 24.7 µM (≈ 8.6 µg/mL) and the EC50 [12] was 0.25 µM. The CC50 at 72 h [13] was 26 µM.
